Assay results: PMC10060354, “Discovery of a small molecule ligand of FRS2 that inhibits invasion and tumor growth” (Cellular Oncology, 2022)
Converted amounts (≈) assume the structure as drawn. Like-named read-outs stand apart in the source and are kept apart here.

Columns and labels:
DAOY cells = experiment: Spheroid invasion assay (SIA), bFGF-induced collagen I invasion; type: cell-based, human; conditions: for functional activity in SIA (result in words): DAOY, bFGF-induced, 1, 5 and 10 µM; for EC50: Daoy
Outline: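 Spheroids formed over 24–72 h were embedded in collagen I (final 1.75 mg/ml) and stimulated with bFGF (100 ng/ml unless stated), HGF 30 ng/ml or EGF 20 ng/ml with compound in DMSO. Invasion distance was quantified 24–48 h after embedding.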

[1] = tested on: bFGF-sensitive (M059K, RT-112, SW780) and bFGF-insensitive (SKOV3, AGS and HCT116) cell lines; experiment: SIA, collagen I invasion in panel of human cancer cell models; type: cell-based; conditions: 10 µM
Experimental: 1000—2500 cells/well in 100 μl were seeded in 96 well Corning® Spheroid microplate (CLS4520, Sigma-Aldrich) or in cell-repellent 96 well microplate (650,790, Greiner Bio-one). SIA and analysis was performed as described before. In brief: After spheroid formation (24 – 72 h after seeding), 70 µl medium was removed and replaced with the collagen mixture (2.5 mg/ml Pure Col Collagen I (Advanced Biomatrix)), DMEM 1x (from 10 × stock, Sigma, D2429) and 0.4% Sodium bicarbonate (Sigma, S8761)), resulting in a final collagen concentration of 1.75 mg/ml. Embedded spheroids were stimulated with bFGF (100 ng/ml if not otherwise stated), HGF (30 ng /ml) or EGF (20 ng/ml) and distance of invaded cells quantified 24 – 48 h after embedding. Compounds and BGJ398 were added in Dimethylsulfoxid (DMSO) and corresponding DMSO concentrations were used in control samples.

[2] = Semi-thermodynamic solubility; type: physicochemical; conditions: for solubility / solubility thermodynamic: PBS, aqueous buffer, thermodynamic from solid; for solubility: Room Temp, Overnight, LC-MSMS; for solubility (result in words): Supplementary Table 2; for solubility thermodynamic: overnight; for solubility thermodynamic / Solubility (class in words): summary sheet
Outline: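 Compound solution agitated overnight at ambient temperature, then centrifuged twice (30 min, 3000 rpm, RT). Supernatant diluted in 50% methanol/water with internal standard and quantified by LC–MS/MS. Solubility derived from a linear or quadratic fit of the standard curve.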

[3] = Microsomal metabolic stability; type: in vitro ADME; conditions: human, pooled liver microsomes; for half-life at 1 µM: pH 7.4, liver microsomes; for microsomal CLint at 1 µM: pH 7.4, read-out: Metabolic stability - Intrinsic clearance (CI)
Outline: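 Pooled liver microsomes were incubated with NADPH for 0, 5, 15, 30 and 45 min; the minus-NADPH control (0.1 M phosphate pH 7.4) ran 45 min only. Reactions were stopped in acetonitrile and analysed by LC–MS/MS. t1/2 = 0.693/k came from the ln peak-area-ratio versus time slope, and CLint (μl/min/mg protein) was derived from it.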

[4] = CaCo-2 permeability (bi-directional); conditions: human
Outline: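 Caco-2 monolayers (passage 40–60) cultured 20 days on Transwells, equilibrated 40 min in HBSS; compound dosed apically (A-B) or basolaterally (B-A) with 1% v/v DMSO and lucifer yellow integrity marker, in duplicate. LC–MS/MS quantification; Papp from permeation rate, C0 and monolayer area; efflux ratio = Papp(B-A)/Papp(A-B).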

[5] = tested on: HepG2 human hepatocellular carcinoma cells; experiment: Cell viability (cytotoxicity, MTT) using HepG2; type: cell-based; conditions: for MEC: 72h, 3 replicas, NR = No response (Summary sheet); for MTT (MEC) Minimum effective concentration: 72 h, summary sheet
Outline: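 Compounds were tested at 8 concentrations in triplicate on HepG2 cells plated 24 h beforehand, with 72 h exposure in 1% DMSO medium. MTT was loaded 1 h before the end, solubilized in DMSO and read at 570 nm. Minimum effective concentration is the lowest concentration exceeding the significance level, given dose-response or two consecutive points above it.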

[6] = read-out: Solubility Replicate 1
[7] = read-out: Solubility Replicate 2
[8] = read-out: Solubility Replicate 3
[9] = read-out: t1/2 of clearance (CL1/2), in vitro
[10] = Caco-2, Mean Papp A-B, Caco-2, summary sheet
[11] = Caco-2, Mean Papp B-A, Caco-2, summary sheet
[12] = Caco-2, pH 7.4, Mean % Recovery A2B, HBSS/HBSS, pH 7.4/7.4
[13] = Caco-2, pH 7.4, Mean % Recovery B2A, HBSS/HBSS, pH 7.4/7.4
[14] = Caco-2, pH 7.4, Mean Papp A2B, HBSS/HBSS, pH 7.4/7.4
[15] = Caco-2, pH 7.4, Mean Papp B2A, HBSS/HBSS, pH 7.4/7.4
[16] = Caco-2, pH 7.4, Papp A2B Replicate 1, HBSS/HBSS, pH 7.4/7.4
[17] = Caco-2, pH 7.4, Papp A2B Replicate 2, HBSS/HBSS, pH 7.4/7.4
[18] = Caco-2, pH 7.4, Papp B2A Replicate 1, HBSS/HBSS, pH 7.4/7.4
[19] = Caco-2, pH 7.4, Papp B2A Replicate 2, HBSS/HBSS, pH 7.4/7.4
[20] = read-out: Solubility Replicate 4
[21] = Homo sapiens, DAOY cells, n = 3 technical replicas, read-out: EC50 for the inhibition of bFGF-induced collagen I invasion

Compound | functional activity in SIA (result in words) (DAOY cells) | collagen I invasion across cancer cell lines (result in words) [1] | solubility ([2]; read-out: Mean Solubility) [µM] | solubility [2, 6] [µM] | solubility [2, 7] [µM] | solubility [2, 8] [µM] | solubility thermodynamic [2] [µM] | Solubility (class in words) [2] | half-life at 1 µM ([3]; read-out: t1/2) [min] | microsomal CLint at 1 µM [3] [µL/min/mg] | efflux ratio at 120 min, 10 μM ([4]; Caco-2) | Papp A→B at 120 min, 10 μM [4, 10] [×10⁻⁶ cm/s] | Papp B→A at 120 min, 10 μM [4, 11] [×10⁻⁶ cm/s] | recovery at 120 min, 10 µM [4, 12] [%] | recovery at 120 min, 10 µM [4, 13] [%] | Papp B→A at 120 min, 10 μM [4, 15] [×10⁻⁶ cm/s] | Papp B→A at 120 min, 10 μM [4, 18] [×10⁻⁶ cm/s] | Papp B→A at 120 min, 10 μM [4, 19] [×10⁻⁶ cm/s] | MEC [5] [µM] | MTT (MEC) Minimum effective concentration [5] [µM] | further results
O=[N+]([O-])c1c(Cl)cc(O)c2c1C1C=CCC1C(c1ccc(Cl)cc1)N2 (stereo not drawn) [Compound 7] | performed equally well as 3.18 | inhibited collagen I invasion in both bFGF-sensitive and bFGF-insensitive cell lines | 10.4 (≈ 3.92 µg/mL) | 11.8 (≈ 4.45 µg/mL) | 9.33 (≈ 3.52 µg/mL) | 9.97 (≈ 3.76 µg/mL) | 10.4 (≈ 3.92 µg/mL) | Sparingly | 3.62 | 383 | 2.84 | 3.59 | 10.2 | 15.3 | 37.8 | 10.2 | 8.39 | 12 | 4.38 | 4.38 | EC50 (DAOY cells; Homo sapiens, 100 ng/ml bFGF, read-out: Collagen I invasion EC50): 2.54 µM; IC50 (DAOY cells; Homo sapiens, DAOY wt): 2.76 µM; solubility (result in words) [2]: sparingly soluble; half-life at 1 µM [3, 9]: 3.62 min; efflux ratio at 120 min, 10 μM ([4]; Caco-2, pH 7.4): 2.84; Papp A→B at 120 min, 10 μM [4, 14]: 3.59 ×10⁻⁶ cm/s; Papp A→B at 120 min, 10 μM [4, 16]: 3.41 ×10⁻⁶ cm/s; Papp A→B at 120 min, 10 μM [4, 17]: 3.76 ×10⁻⁶ cm/s; toxicity in the MTT assay (result in words) [5]: moderately toxic
N#Cc1c(Cl)cc(O)c2c1C1C=CCC1C(c1ccc(Cl)cc1)N2 (stereo not drawn) [Compound 14] | reduced invasion comparable to the parent compound 7 | inhibited collagen I invasion in both bFGF-sensitive and bFGF-insensitive cell lines | 24.8 (≈ 8.86 µg/mL) | 25 (≈ 8.93 µg/mL) | 16.6 (≈ 5.93 µg/mL) | 27.2 (≈ 9.72 µg/mL) | 24.8 (≈ 8.86 µg/mL) | Sparingly | 1.64 | 845 |  |  | 2.31 | 81.1 | 50.7 | 2.31 | 3.4 | 1.22 | 3.93 | 3.93 | solubility [2, 20]: 30.3 µM (≈ 10.8 µg/mL)
COc1ncc(C(C)NC2CC(C)(C)NC(C)(C)C2)cc1Cl (stereo not drawn) [Compound 3.3] |  | significant repression of collagen I invasion only in SKOV3 and M059K cells | > 100 | > 100 | > 100 | > 100 | > 100 | Freely | 3.91 | 355 | 8.01 | 4.79 | 38.3 | 73.1 | 104 | 38.3 | 39.9 | 36.8 | 75.8 | 75.8 | EC50 (DAOY cells; [21]): 14.3 µM; solubility [2, 20]: > 100 µM; efflux ratio at 120 min, 10 μM ([4]; Caco-2, pH 7.4): 8.01; Papp A→B at 120 min, 10 μM [4, 14]: 4.79 ×10⁻⁶ cm/s; Papp A→B at 120 min, 10 μM [4, 16]: 4.98 ×10⁻⁶ cm/s; Papp A→B at 120 min, 10 μM [4, 17]: 4.59 ×10⁻⁶ cm/s
Cc1[nH]nc(-c2ccc(O)c(C)c2O)c1-c1nc2ccccc2s1 [Compound E12] | comparable inhibition of invasion | inhibited collagen I invasion only in bFGF-sensitive cell lines M059K, RT-112 and SW780 | > 100 | > 100 | > 100 | > 100 | > 100 | Freely | 5.52 | 251 | 5.13 | 4.53 | 23.2 | 102 | 65.6 | 23.2 | 22 | 24.4 | 15.6 | 15.6 | EC50 (DAOY cells; [21]): 18.2 µM; solubility [2, 20]: > 100 µM; solubility (result in words) [2]: freely soluble; half-life at 1 µM [3, 9]: 5.52 min; efflux ratio at 120 min, 10 μM ([4]; Caco-2, pH 7.4): 5.13; Papp A→B at 120 min, 10 μM [4, 14]: 4.53 ×10⁻⁶ cm/s; Papp A→B at 120 min, 10 μM [4, 16]: 3.77 ×10⁻⁶ cm/s; Papp A→B at 120 min, 10 μM [4, 17]: 5.28 ×10⁻⁶ cm/s; toxicity in the MTT assay (result in words) [5]: moderate toxicity
